Literature values as cited in US20060019984A1, “Treatment of diseases with alpha-7nACh receptor full agonists” (Pfizer Inc, priority 2003, published 2006).

Key:
[1] = molecular target: T1, 5HT3R (Homo sapiens, UniProt P46098); settings: general statement, no method or value given
T1 sequence (P46098 24-478): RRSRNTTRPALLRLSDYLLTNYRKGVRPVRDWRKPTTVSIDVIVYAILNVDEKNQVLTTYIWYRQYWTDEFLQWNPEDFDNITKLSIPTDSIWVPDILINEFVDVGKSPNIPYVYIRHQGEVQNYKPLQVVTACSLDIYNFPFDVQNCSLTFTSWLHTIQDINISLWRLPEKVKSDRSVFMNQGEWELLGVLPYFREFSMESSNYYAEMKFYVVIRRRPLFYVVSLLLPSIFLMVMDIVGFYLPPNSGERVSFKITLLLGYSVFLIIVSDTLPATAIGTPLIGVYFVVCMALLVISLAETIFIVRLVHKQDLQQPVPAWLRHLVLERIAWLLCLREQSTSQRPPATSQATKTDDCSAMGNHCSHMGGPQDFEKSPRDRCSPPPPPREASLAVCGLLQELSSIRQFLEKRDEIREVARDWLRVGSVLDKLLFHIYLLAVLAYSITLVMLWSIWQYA

[2] = molecular target: α7 nAChR (Homo sapiens, UniProt P36544); settings: general statement, no method or value given
α7 nAChR, sequence (P36544 23-502): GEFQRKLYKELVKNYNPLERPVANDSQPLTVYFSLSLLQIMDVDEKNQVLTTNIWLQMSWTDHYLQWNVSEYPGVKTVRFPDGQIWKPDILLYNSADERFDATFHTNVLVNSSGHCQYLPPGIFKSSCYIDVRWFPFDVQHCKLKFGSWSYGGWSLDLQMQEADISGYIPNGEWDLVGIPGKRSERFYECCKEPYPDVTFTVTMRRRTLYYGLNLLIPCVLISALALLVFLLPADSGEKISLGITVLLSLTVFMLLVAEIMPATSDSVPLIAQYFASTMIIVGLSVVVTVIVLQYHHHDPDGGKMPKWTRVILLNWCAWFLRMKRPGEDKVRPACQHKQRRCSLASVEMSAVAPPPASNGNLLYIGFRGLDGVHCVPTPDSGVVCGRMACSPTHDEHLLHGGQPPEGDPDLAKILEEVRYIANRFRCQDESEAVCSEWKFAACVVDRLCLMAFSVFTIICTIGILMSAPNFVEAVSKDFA

| Structure (SMILES) | activity at the 5HT3R [1] | activity at the α7 nAChR [2] |
| --- | --- | --- |
| COc1ccc(/C=C2\CCCN=C2c2cccnc2)c(OC)c1 [GTS-21] | little activity | – |
| Cc1nccn1CC1CCc2c(c3ccccc3n2C)C1=O (centres unmarked) [Ondansetron] | – | little activity |
